Test: gradient 5% acetonitrile 3 min, to 50% in 2 min, to 85% in 15 min, held 3 min, 100 µL/min
Conditions: column: Zorbax Extend-C18 2.1 x 50 mm; eluents: water / acetonitrile, 0.1% formic acid
How it was run: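 Mixtures of ~100 pure standards were chromatographed on a Zorbax Extend-C18 column (2.1 × 50 mm, 1.8 μm) at 100 μL/min using water and acetonitrile, each with 0.1% formic acid. Detection used a quadrupole time-of-flight mass spectrometer in positive and negative ionization mode, and data collection spanned 3 months. Retention time was obtained from adduct peaks picked computationally and each checked manually.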

| SMILES | RP-LC retention time |
| --- | --- |
| CC1CCN(c2cc(-n3cnc(C(=O)N4CCC(N5CCCCC5)CC4)c3)ncn2)CC1 | 662 s |
| COc1cc(CCC(=O)N2CCN(c3cc(=O)n(C)c(=O)n3C)CC2)cc(OC)c1OC | 647 s |
| CC(CCc1ccccc1)NCc1ccc2c(c1)n(C)c(=O)n2C (configuration not stated) | 610 s |
| Cc1ccc(-c2cn(CC(=O)N3CCN(c4cccc(C)c4)CC3)c(=O)o2)cc1 | 1020 s |
| CCCNC(=O)C1CCCN(c2nc3ncn(CC(=O)Nc4cccc(C(C)C)c4)c(=O)c3s2)C1 (configuration not stated) | 802 s |
| CCOC(=O)c1c(C)oc2ncnc(Nc3cc(Cl)ccc3OC)c12 | 1360 s |
| CC1CCN(C(=O)c2ccc(CN3CCN(Cc4ccc(F)cc4)C(=O)C3=O)cc2)CC1 | 783 s |
| Cc1ccc(NC(=O)N2CCC(N3CCN(Cc4ccccc4)C3=O)CC2)cc1C | 843 s |
| COC(=O)C(C)(N)Cc1ccc(O)cc1 (configuration not stated) | 573 s |
| CC(C)CCNC(=O)c1nc(Nc2ccc(F)cc2)c2ccccc2n1 | 851 s |
| Cc1ccc(NC(=O)C2CC(=O)N(c3cccc(NC(=O)C(C)C)c3)C2)cc1Cl (configuration not stated) | 872 s |
| O=C(Nc1nnc(C2CC(=O)N(c3ccccc3)C2)o1)c1ccccn1 (configuration not stated) | 620 s |
| CCS(=O)(=O)N1CCC(C(=O)NCCc2csc(-c3cccs3)n2)CC1 | 738 s |
| COc1cccc(-c2cn3ccn(-c4ccc(Br)cc4)c(=O)c3n2)c1 | 866 s |
| COC(=O)c1c(NC(=O)CSc2nnnn2-c2ccccc2OC)sc2c1CCC2 | 1060 s |
| Cc1ccc(C)c(C(=O)NCC(C)(O)c2ccccc2)c1 (configuration not stated) | 759 s |
| Cc1nnc(Cc2ccccc2)c2n[nH]c(C)c12 | 647 s |
| O=C(Cc1nnc2c(-c3nc(C4CC4)no3)cccn12)N1CCCCC1 | 616 s |
| Cc1ccc(N2CC(c3noc(C4(c5ccccc5)CC4)n3)CC2=O)cc1 (configuration not stated) | 989 s |

| SMILES | RP-LC retention time |
| --- | --- |
| CCCNC(=O)N1CCCCCCN(C)C(=O)CC1 | 662 s |
| Cn1nc(-c2nnc(-c3ccc(F)cc3)o2)c2c1CCN(S(=O)(=O)c1ccc(F)c(Cl)c1)C2 | 990 s |
| CCOc1ccccc1-n1ccn(Cc2nc(-c3ccc(Cl)cc3)no2)c(=O)c1=O | 938 s |
| CCC(CC)N1CCC(F)(c2nc(-c3ccccc3)no2)CC1 | 704 s |
| O=C(c1nnc(-c2ccc(S(=O)(=O)N3CCCC3)cc2)o1)N1CCC(Cc2ccccc2)CC1 | 1130 s |
| COCCn1c(C)c(C)c(S(=O)(=O)c2ccc(F)cc2)c1NC(=O)C1CCCO1 (configuration not stated) | 839 s |
| CCN1c2ccccc2C(=O)NC12CCN(C(=O)c1cccc(C)c1)CC2 | 805 s |
| O=C(NCc1ccccc1F)C1CCCN(c2nnc3ccc(C(F)(F)F)cn23)C1 (configuration not stated) | 781 s |
| COc1ccc(-c2nnc(SCc3cccc(C(F)(F)F)c3)o2)cc1OC | 992 s |
| COc1ccc(-c2noc(-c3nnn4c3COC(c3ccc(F)cc3)C4)n2)c(OC)c1 (configuration not stated) | 836 s |
| c1cnn(-c2ccc(-c3noc(-c4ccc5c(c4)OCO5)n3)cn2)c1 | 1170 s |
| Clc1nnc2c3ccccc3ccn12 | 747 s |
| Fc1ccccc1-c1nc2ccc(Cl)cn2c1Nc1ccc(Cl)cc1 | 909 s |
| O=C(NC1CCN(C(=O)C2CC2)C1)C1CCC1 (configuration not stated) | 606 s |
| CCOC(=O)c1cnc2nc(C)ccc2c1Nc1ccc(F)cc1Cl | 742 s |
| COC(=O)c1c(NCCc2ccc(Cl)cc2)c2cc(F)ccc2[nH]c1=O | 857 s |
| O=C(c1ccc(Br)o1)N1CCCC(c2nnc(-c3ccccc3)o2)C1 (configuration not stated) | 852 s |
| CCC(C(=O)Nc1ccc(OC)c(OC)c1)n1cnc2nc3c(cc2c1=O)CCCC3 (configuration not stated) | 720 s |
